Experimental data reported in PubChem BioAssay AID1919015 (Molecular Pharmacology Branch, DTP, NCI, 2023).

Tested on: OVCAR-5 complex spheroids with HUVEC/MSC, viability, % test/control
Test: Anticancer human tumor OVCAR-5 cell line growth inhibition [AhR];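 further: spheroids exposed to compounds for 7 days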;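 on viability, T/C: 100% = DMSO vehicle control wells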
Settings: for IC50: curve of first compound; for viability, T/C: stronger effect = lower value
How it was run: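 Agents were dosed in half-log steps down from roughly clinical Cmax, or from 10 microM where Cmax was unknown, alone and with AhR antagonists. Read-out: percent test/control growth of tumor spheroids containing HUVEC and MSC stromal cells.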

[1] = second compound 0.1 µM, first compound 0.0316 µM
[2] = second compound 0.1 µM, first compound 0.1 µM
[3] = second compound 0.1 µM, first compound 0.316 µM
[4] = second compound 0.1 µM, first compound 1 µM
[5] = second compound 0.316 µM, first compound 0.0316 µM
[6] = second compound 0.316 µM, first compound 0.1 µM
[7] = second compound 0.316 µM, first compound 0.316 µM
[8] = second compound 0.316 µM, first compound 1 µM
[9] = second compound 1 µM, first compound 0.0316 µM
[10] = second compound 1 µM, first compound 0.1 µM
[11] = second compound 1 µM, first compound 0.316 µM
[12] = second compound 1 µM, first compound 1 µM
[13] = second compound 3.16 µM, first compound 0.0316 µM
[14] = second compound 3.16 µM, first compound 0.1 µM
[15] = second compound 3.16 µM, first compound 0.316 µM
[16] = second compound 3.16 µM, first compound 1 µM
[17] = second compound 10 µM, first compound 0.0316 µM
[18] = second compound 10 µM, first compound 0.1 µM
[19] = second compound 10 µM, first compound 0.316 µM
[20] = second compound 10 µM, first compound 1 µM

Which IC50 (second compound 0.1 µM) does the source give for `CCc1c2c(nc3ccc(O)cc13)-c1cc3c(c(=O)n1C2)COC(=O)[C@]3(O)CC` + Cc1ccccc1N=Nc1ccc(NC(=O)c2ccnn2C)c(C)c1 here?
Its IC50 is 6.95 nM.

And the IC50 (second compound 0.316 µM)?
Its IC50 is 8.2 nM.

And the IC50 (second compound 1 µM)?
Its IC50 is 9.43 nM.

And the IC50 (second compound 3.16 µM)?
Its IC50 is 9.46 nM.

What about the IC50 (second compound 10 µM) of the same molecule?
Its IC50 is 10.5 nM.

And the viability, T/C (second compound 0.1 µM, first compound 0.000949 µM)?
The viability, T/C was 85.7%.

And the viability, T/C (second compound 0.1 µM, first compound 0.003 µM)?
Its viability, T/C is 64.3%.

And the viability, T/C (second compound 0.1 µM, first compound 0.00949 µM)?
The viability, T/C was 37.1%.

What about the viability, T/C (second compound 0.1 µM, first compound 0.03 µM) of the same molecule?
The viability, T/C was 36.9%.

And the viability, T/C (second compound 0.1 µM, first compound 0.0949 µM)?
Its viability, T/C is 22.5%.

And the viability, T/C (second compound 0.1 µM, first compound 0.3 µM)?
Its viability, T/C is 7.67%.

And the viability, T/C (second compound 0.316 µM, first compound 0.000949 µM)?
Its viability, T/C is 87.4%.

And the viability, T/C (second compound 0.316 µM, first compound 0.003 µM)?
Its viability, T/C is 70.3%.

What about the viability, T/C (second compound 0.316 µM, first compound 0.00949 µM) of the same molecule?
The viability, T/C was 39.2%.

What about the viability, T/C (second compound 0.316 µM, first compound 0.03 µM) of the same molecule?
Its viability, T/C is 37%.

And the viability, T/C (second compound 0.316 µM, first compound 0.0949 µM)?
Its viability, T/C is 18.7%.

What about the viability, T/C (second compound 0.316 µM, first compound 0.3 µM) of the same molecule?
Its viability, T/C is 6.8%.

And the viability, T/C (second compound 1 µM, first compound 0.000949 µM)?
The viability, T/C was 91.3%.

And the viability, T/C (second compound 1 µM, first compound 0.003 µM)?
Its viability, T/C is 73.4%.

What about the viability, T/C (second compound 1 µM, first compound 0.00949 µM) of the same molecule?
Its viability, T/C is 40.8%.

And the viability, T/C (second compound 1 µM, first compound 0.03 µM)?
Its viability, T/C is 38.3%.

And the viability, T/C (second compound 1 µM, first compound 0.0949 µM)?
The viability, T/C was 20.9%.

What about the viability, T/C (second compound 1 µM, first compound 0.3 µM) of the same molecule?
The viability, T/C was 7.02%.

And the viability, T/C (second compound 3.16 µM, first compound 0.000949 µM)?
The viability, T/C was 95.9%.

What about the viability, T/C (second compound 3.16 µM, first compound 0.003 µM) of the same molecule?
The viability, T/C was 70.7%.

And the viability, T/C (second compound 3.16 µM, first compound 0.00949 µM)?
Its viability, T/C is 45.4%.

And the viability, T/C (second compound 3.16 µM, first compound 0.03 µM)?
The viability, T/C was 38.1%.

And the viability, T/C (second compound 3.16 µM, first compound 0.0949 µM)?
The viability, T/C was 18.4%.

What about the viability, T/C (second compound 3.16 µM, first compound 0.3 µM) of the same molecule?
Its viability, T/C is 7.44%.

And the viability, T/C (second compound 10 µM, first compound 0.000949 µM)?
The viability, T/C was 89.5%.

What about the viability, T/C (second compound 10 µM, first compound 0.003 µM) of the same molecule?
The viability, T/C was 65.9%.

And the viability, T/C (second compound 10 µM, first compound 0.00949 µM)?
The viability, T/C was 45.9%.

And the viability, T/C (second compound 10 µM, first compound 0.03 µM)?
Its viability, T/C is 42.1%.

What about the viability, T/C (second compound 10 µM, first compound 0.0949 µM) of the same molecule?
Its viability, T/C is 21.5%.

And the viability, T/C (second compound 10 µM, first compound 0.3 µM)?
Its viability, T/C is 8.22%.

With `CC1COCCN1c1cc(-c2ccnn2C)c2ccnc(-c3ccn[nH]3)c2n1` (stereo not given) + Cc1ccccc1N=Nc1ccc(NC(=O)c2ccnn2C)c(C)c1 as the molecule, how does the IC50 (second compound 0.1 µM) read?
The IC50 was 244 nM.

And the IC50 (second compound 0.316 µM)?
The IC50 was 253 nM.

And the IC50 (second compound 1 µM)?
The IC50 was 284 nM.

And the IC50 (second compound 3.16 µM)?
The IC50 was 269 nM.

What about the IC50 (second compound 10 µM) of the same molecule?
Its IC50 is 272 nM.

What about the viability, T/C (second compound 0.1 µM, first compound 0.00316 µM) of the same molecule?
The viability, T/C was 102%.

What about the viability, T/C (second compound 0.1 µM, first compound 0.01 µM) of the same molecule?
The viability, T/C was 101%.

And the viability, T/C [1]?
Its viability, T/C is 98.5%.

What about the viability, T/C [2] of the same molecule?
The viability, T/C was 79.9%.

And the viability, T/C [3]?
Its viability, T/C is 41.4%.

And the viability, T/C [4]?
Its viability, T/C is 26.3%.

And the viability, T/C (second compound 0.316 µM, first compound 0.00316 µM)?
Its viability, T/C is 104%.

What about the viability, T/C (second compound 0.316 µM, first compound 0.01 µM) of the same molecule?
Its viability, T/C is 105%.

And the viability, T/C [5]?
The viability, T/C was 101%.

And the viability, T/C [6]?
The viability, T/C was 81.1%.

What about the viability, T/C [7] of the same molecule?
Its viability, T/C is 42.5%.

What about the viability, T/C [8] of the same molecule?
The viability, T/C was 28.2%.

What about the viability, T/C (second compound 1 µM, first compound 0.00316 µM) of the same molecule?
Its viability, T/C is 108%.

What about the viability, T/C (second compound 1 µM, first compound 0.01 µM) of the same molecule?
Its viability, T/C is 110%.

And the viability, T/C [9]?
The viability, T/C was 101%.

What about the viability, T/C [10] of the same molecule?
Its viability, T/C is 87.5%.

What about the viability, T/C [11] of the same molecule?
Its viability, T/C is 45.5%.

And the viability, T/C [12]?
Its viability, T/C is 30.1%.

What about the viability, T/C (second compound 3.16 µM, first compound 0.00316 µM) of the same molecule?
The viability, T/C was 109%.

What about the viability, T/C (second compound 3.16 µM, first compound 0.01 µM) of the same molecule?
The viability, T/C was 109%.

What about the viability, T/C [13] of the same molecule?
The viability, T/C was 105%.

What about the viability, T/C [14] of the same molecule?
Its viability, T/C is 88.6%.

And the viability, T/C [15]?
Its viability, T/C is 43.4%.

What about the viability, T/C [16] of the same molecule?
Its viability, T/C is 32.5%.

And the viability, T/C (second compound 10 µM, first compound 0.00316 µM)?
The viability, T/C was 105%.

What about the viability, T/C (second compound 10 µM, first compound 0.01 µM) of the same molecule?
Its viability, T/C is 106%.

What about the viability, T/C [17] of the same molecule?
Its viability, T/C is 101%.

And the viability, T/C [18]?
Its viability, T/C is 82.2%.

And the viability, T/C [19]?
The viability, T/C was 45%.

What about the viability, T/C [20] of the same molecule?
Its viability, T/C is 33%.

With `COc1ccc([C@@H](O)c2cc(-c3ncnc4cc(N5CCOCC5)ccc34)c(F)cc2Cl)nn1` + Cc1ccccc1N=Nc1ccc(NC(=O)c2ccnn2C)c(C)c1 as the molecule, how does the IC50 (second compound 0.1 µM) read?
Its IC50 is 2910 nM.

And the IC50 (second compound 0.316 µM)?
The IC50 was 2980 nM.

And the IC50 (second compound 1 µM)?
Its IC50 is 3750 nM.

What about the IC50 (second compound 3.16 µM) of the same molecule?
The IC50 was 4540 nM.

What about the IC50 (second compound 10 µM) of the same molecule?
The IC50 was 3230 nM.

What about the viability, T/C [1] of the same molecule?
Its viability, T/C is 102%.

And the viability, T/C [2]?
Its viability, T/C is 101%.

And the viability, T/C [3]?
Its viability, T/C is 95.5%.

And the viability, T/C [4]?
Its viability, T/C is 76.3%.

What about the viability, T/C (second compound 0.1 µM, first compound 3.16 µM) of the same molecule?
The viability, T/C was 48.4%.

And the viability, T/C (second compound 0.1 µM, first compound 10 µM)?
Its viability, T/C is 24.1%.

What about the viability, T/C [5] of the same molecule?
The viability, T/C was 104%.

And the viability, T/C [6]?
The viability, T/C was 102%.

And the viability, T/C [7]?
The viability, T/C was 97.5%.

What about the viability, T/C [8] of the same molecule?
The viability, T/C was 76.8%.

And the viability, T/C (second compound 0.316 µM, first compound 3.16 µM)?
Its viability, T/C is 49.1%.

What about the viability, T/C (second compound 0.316 µM, first compound 10 µM) of the same molecule?
The viability, T/C was 27.6%.

And the viability, T/C [9]?
Its viability, T/C is 109%.

What about the viability, T/C [10] of the same molecule?
Its viability, T/C is 107%.

And the viability, T/C [11]?
Its viability, T/C is 99.5%.

What about the viability, T/C [12] of the same molecule?
The viability, T/C was 87.5%.

And the viability, T/C (second compound 1 µM, first compound 3.16 µM)?
Its viability, T/C is 53.5%.

What about the viability, T/C (second compound 1 µM, first compound 10 µM) of the same molecule?
Its viability, T/C is 26%.

And the viability, T/C [13]?
The viability, T/C was 113%.

And the viability, T/C [14]?
Its viability, T/C is 106%.

And the viability, T/C [15]?
The viability, T/C was 98.9%.

And the viability, T/C [16]?
Its viability, T/C is 85.1%.

And the viability, T/C (second compound 3.16 µM, first compound 3.16 µM)?
Its viability, T/C is 57.6%.

What about the viability, T/C (second compound 3.16 µM, first compound 10 µM) of the same molecule?
The viability, T/C was 31.6%.

What about the viability, T/C [17] of the same molecule?
The viability, T/C was 103%.

What about the viability, T/C [18] of the same molecule?
The viability, T/C was 98.9%.

What about the viability, T/C [19] of the same molecule?
Its viability, T/C is 96.3%.

And the viability, T/C [20]?
Its viability, T/C is 76.7%.

And the viability, T/C (second compound 10 µM, first compound 3.16 µM)?
Its viability, T/C is 51.2%.

And the viability, T/C (second compound 10 µM, first compound 10 µM)?
The viability, T/C was 22.8%.
